The test system of one test is parvalbumin interneurons. Description: Parvalbumin immunohistochemistry in brains of scPCP-treated rats. It is filed as in vivo, rat. Particulars: 21-day treatment, 30 mg/kg p.o.
Test [1] concerns scPCP treated rats. Kind of test: Social interaction test in sub-chronic PCP treated rats. Conditions: for Object exploration duration, inanimate object (FIG. 10): 21-day test article 10 & 30 mg/kg p.o.
In test [2] the test system is scPCP treated rats. Kind of test: Attentional set-shifting task (ASST) in sub-chronic PCP treated rats. Conditions: for Number of trials to criterion in the EDS phase (FIG. 20): 21-day treatment, compared to scPCP group.
For test [3], the system named is scPCP treated rats. Kind of test: Novel object recognition (NOR) test in sub-chronic PCP treated rats. Particulars: for Time spent exploring the novel versus familiar object in the retention trial (FIG. 6): 20-day treatment with compound of Formula I 10 & 30 mg/kg p.o.; for Time spent exploring the novel versus familiar object in the retention trial (FIG. 2): compound of Formula I 10 & 30 mg/kg p.o.

The next test deals with SNAP25. Kind of test: Simple Western of synaptic marker SNAP25 in prefrontal cortex of scPCP-treated rats. It is filed as in vivo, rat. Conditions: 21-day treatment; for SNAP25 levels in the total prefrontal cortex (FIG. 18): Example 3, vs scPCP; for scPCP-induced loss of SNAP25, relative protein level in prefrontal cortex (FIG. 21): Example 4. How it is done: (§1) Remaining ½ brains (remaining hemispheres) were processed for protein analysis of BDNF using ELISA (quantified in the prefrontal cortex and the dorsal hippocampus) and synaptic markers using Simple Western (quantified in the prefrontal cortex).
(§2) Prefrontal Cortex and dorsal hippocampus were dissected from the frozen brain and homogenised on ice in a 10-fold volume (mg:μL) of buffer (10 mM Trizma base, Sigma-Aldrich; […] sucrose, Sigma-Aldrich; 2 mM EDTA, Sigma-Aldrich; and protease- and phosphatase-inhibitor cocktails, Sigma-Aldrich) buffered to a pH of 7.4. Phenylmethylsulfonyl fluoride (PMSF) and sodium orthovanadate were added to the solution at a 1% (v/v) concentration. Samples were centrifuged at 800×g for 15 minutes at 4° C. The supernatant was collected and centrifuged at 11,700×g for 20 minutes, and the resulting supernatant was collected and stored at −20° C. until analysis.
Protein concentrations of each sample were calculated using a Bradford Assay. Samples were diluted into protein assay dye reagent concentrate (BioRad) and compared to bovine serum albumin (Sigma) of known concentration (1.0-0.1 mg/ml protein). A standard curve was created using a simple linear regression. Standards and samples were run in triplicate. An outlying value from a triplicate was removed if the CV value was greater than 10%.
A WES plate was prepared following the provided instructions (SM-W004, ProteinSimple). Diluted samples were mixed with dithiothreitol and fluorescent master mix in an 8:1:1 ratio. Samples were denatured at 95° C. for five minutes. The samples, antibody diluent, primary antibody, secondary antibody and luminol-peroxide mix were loaded into appropriate wells. A biotinylated ladder, antibody diluent, streptavidin-HRP and luminol peroxide were also loaded. After brief centrifugation of the plate, wash buffer was added. The plate was then placed into the WES machine, whereby the load separation matrix is aspirated, and stacking matrix drawn up into each capillary. […] Finally, the chemiluminescent substrate was added into the capillaries, and the camera detected the levels of chemiluminescence at 9 different timepoints (1-512 seconds). The software then calculated the high dynamic range (HDR) of the peaks, which is calculated from the individual exposures and provides the largest dynamic range of the signal with the lowest background. The HDR peak is then used to calculate the area under the curve, which is analogous to the quantity of protein in the sample. […]
(§3) BDNF and synaptic markers were analysed using a one-way ANOVA followed by planned post hoc analysis to investigate differences between treatment groups for Prefrontal Cortex (BDNF & Synaptic markers) and Dorsal Hippocampus (BDNF) respectively.

For the next test, the system named is BDNF. Description: BDNF ELISA in brain tissue of scPCP-treated rats. The format is in vivo, rat. Conditions: Example 4; 21-day treatment; two different protein concentrations. How it is done: as §1, §2
Protein concentrations of each sample were calculated using a Bradford Assay. Samples were diluted into protein assay dye reagent concentrate (BioRad) and compared to bovine serum albumin (Sigma) of known concentration (1.0-0.1 mg/ml protein). […]
as §3
A general note: An ELISA detects its analyte on a solid surface through an enzyme-linked reagent.

A further test relates to PSD95. Kind of test: Simple Western of synaptic marker PSD95 in prefrontal cortex of scPCP-treated rats. It is filed as in vivo, rat. Particulars: Example 4, 21-day treatment. Here is the method:
as §1
Prefrontal Cortex and dorsal hippocampus were dissected from the frozen brain and homogenised on ice in a 10-fold volume (mg:μL) of buffer (10 mM Trizma base, Sigma-Aldrich; […] sucrose, Sigma-Aldrich; 2 mM EDTA, Sigma-Aldrich; and protease- and phosphatase-inhibitor cocktails, Sigma-Aldrich) buffered to a pH of 7.4. Phenylmethylsulfonyl fluoride (PMSF) and sodium orthovanadate were added to the solution at a 1% (v/v) concentration. Samples were centrifuged at 800×g for 15 minutes at 4° C. […]
Protein concentrations of each sample were calculated using a Bradford Assay. […]
A WES plate was prepared following the provided instructions (SM-W004, ProteinSimple). […] Finally, the chemiluminescent substrate was added into the capillaries, and the camera detected the levels of chemiluminescence at 9 different timepoints (1-512 seconds). The software then calculated the high dynamic range (HDR) of the peaks, which is calculated from the individual exposures and provides the largest dynamic range of the signal with the lowest background. The HDR peak is then used to calculate the area under the curve, which is analogous to the quantity of protein in the sample. […]

The test system of test [4] is scPCP treated rats. Particulars: 7-day treatment; female rats; McLean et al., 2008, 2012; cited from earlier work.
Test [5] addresses tropomyosin receptor kinase B (TrkB) (Homo sapiens, UniProt Q16620). Particulars: known from the art; cited from earlier work.
The mark [6] stands for this setting: acute risperidone 0.1 mg/kg i.p.
Setting [7] is: acute risperidone 0.1 mg/kg i.p., scPCP rats.
[8] abbreviates: acute treatment, risperidone 0.1 mg/kg i.p., scPCP rats.
Setting [9] is: 20-day phase, scPCP rats, acute risperidone 0.1 mg/kg i.p.
Setting [10] is: acute phase, scPCP rats, risperidone 0.1 mg/kg i.p., 60 min prior to testing.

Sequence of tropomyosin receptor kinase B (TrkB) (Q16620 32-822, species assumed): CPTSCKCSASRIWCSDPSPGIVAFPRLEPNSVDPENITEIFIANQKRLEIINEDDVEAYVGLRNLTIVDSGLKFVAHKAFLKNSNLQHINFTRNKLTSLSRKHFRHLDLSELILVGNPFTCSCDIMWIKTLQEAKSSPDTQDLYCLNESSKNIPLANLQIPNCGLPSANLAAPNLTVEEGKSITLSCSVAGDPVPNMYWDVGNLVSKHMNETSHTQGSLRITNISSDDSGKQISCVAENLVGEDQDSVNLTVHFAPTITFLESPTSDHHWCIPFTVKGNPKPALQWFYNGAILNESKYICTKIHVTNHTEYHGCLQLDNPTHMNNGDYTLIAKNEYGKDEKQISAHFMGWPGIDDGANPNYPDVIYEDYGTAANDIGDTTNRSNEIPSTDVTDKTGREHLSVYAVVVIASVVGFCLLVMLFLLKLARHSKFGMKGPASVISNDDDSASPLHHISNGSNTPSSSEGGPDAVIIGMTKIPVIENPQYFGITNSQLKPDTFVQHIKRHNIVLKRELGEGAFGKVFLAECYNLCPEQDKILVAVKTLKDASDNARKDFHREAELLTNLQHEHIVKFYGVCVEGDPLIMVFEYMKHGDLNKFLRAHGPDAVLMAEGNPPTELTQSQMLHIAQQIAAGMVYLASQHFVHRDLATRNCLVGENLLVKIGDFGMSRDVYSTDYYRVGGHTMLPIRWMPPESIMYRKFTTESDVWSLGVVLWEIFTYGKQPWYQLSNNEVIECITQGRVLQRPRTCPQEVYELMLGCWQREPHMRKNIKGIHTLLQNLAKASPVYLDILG
Experimental for parvalbumin interneurons: Animals were culled by increasing concentration of carbon dioxide and death was confirmed by cervical dislocation. Brains were removed, frozen on dry ice and stored at −80° C. until analysis.
½ brains (one hemisphere) were randomly selected and processed for parvalbumin immunohistochemistry (IHC), quantified in the prefrontal cortex and dorsal hippocampus.
Sections (30 μm thickness) were washed in 1× PBS three times for five minutes each. Sections underwent heat-induced antigen retrieval in sodium citrate buffer (0.294% (w/v) sodium citrate, 0.07% (v/v) tween-20, 500 ml distilled water, pH adjusted to 6.0) for 30 minutes at 80° C. Unless otherwise stated, samples were washed twice in 1× PBS between each step.
Parvalbumin (PV) sections were processed for light microscopy. […]
Images were acquired on a 3D-Histech Pannoramic-250 microscope slide-scanner using a 20×/0.80 Plan Apochromat objective (Zeiss). […] For PV images, the region of interest was delineated, and the number of cell detections were manually counted within the CaseViewer software. Density was calculated by dividing the number of positive cell detections by the area of the region of interest.
Parvalbumin density in the Prefrontal Cortex and Dorsal Hippocampus were analysed using a repeated measure two-way ANOVA with region and treatment as fixed factors. […]

With `N#Cc1ccc(-c2cc(=O)c3ccc4[nH]c(C(F)(F)F)nc4c3o2)cc1` [Compound of Formula I, 4-(6-oxo-2-(trifluoromethyl)-3,6-dihydrochromeno[7,8-d]imidazol-8-yl)benzonitrile], in the test with parvalbumin interneurons (compared to scPCP group), the “PV cell density in the total prefrontal cortex (FIG. 13)” value is reported as “significantly increased”. Besides, in the test on parvalbumin interneurons (vs scPCP), the “PV cell density in subregions of the prefrontal cortex (Cg1, PrL, IL) (FIG. 12)” value is “significantly increased”. Moreover, in the test with scPCP treated rats [1] (setting [6]), the “Object exploration duration, inanimate object (FIG. 10)” value is reported as “no differences”. For the same compound, the “Sniffing duration, social impairment deficit (FIG. 9)” value in the test with scPCP treated rats [1] (21-day treatment, 10 & 30 mg/kg p.o.) is recorded as “able to rescue the social impairment deficit in the scPCP treated rats in a dose dependent manner”. Moreover, the “Number of trials to criterion in the EDS phase (FIG. 20)” value with scPCP treated rats [2] (3 mg/kg p.o.) was “No significant reduction”; with scPCP treated rats [2] (10 mg/kg p.o.), “near significant reductions”; in the test with scPCP treated rats [2] (30 mg/kg p.o.) it was “significant reductions”. Further, the “Time spent exploring the novel versus familiar object in the retention trial (FIG. 6)” value in the test with scPCP treated rats [3] (setting [7]) is listed as “dose dependent statistically significant effect”. The “Discrimination index (DI) (FIG. 7)” value in the test with scPCP treated rats [3] (20-day treatment, 30 mg/kg p.o., compared to scPCP animals without treatment) is on record as “statistically significant increase”. In addition, in the test with scPCP treated rats [3] (setting [8]), the “Time spent exploring the novel versus familiar object in the retention trial (FIG. 2)” value is on record as “not shown to have a difference”. The results for the “SNAP25 levels in the total prefrontal cortex (FIG. 18)” value with SNAP25 (10 mg/kg p.o.) and in the test with SNAP25 (30 mg/kg p.o.) were “increased significantly” and “not”, respectively. Also, the “scPCP-induced loss of SNAP25, relative protein level in prefrontal cortex (FIG. 21)” value in the test with SNAP25 (30 mg/kg p.o.) is listed as “not”; with SNAP25 (3 and 10 mg/kg p.o.), “significantly alleviated”. Besides, the “Concentration of BDNF in the dorsal hippocampus (FIG. 22)” value in the test with BDNF is “increase the level of BDNF back to that of vehicle treated animals”. For the same compound, the “scPCP-induced loss of PSD95, relative protein level in prefrontal cortex (FIG. 21)” value in the test on PSD95 (30 mg/kg p.o.) was “not”; with PSD95 (3 and 10 mg/kg p.o.), “significantly alleviated”.
Turning to `Cc1nc2n(c(=O)c1CCN1CCC(c3noc4cc(F)ccc34)CC1)CCCC2` [Risperidone, risperidone], the “Object exploration duration, inanimate object (FIG. 10)” value in the test on scPCP treated rats [1] (setting [6]) is on record as “no differences”. Moreover, the “Sniffing duration (FIG. 9)” value in the test on scPCP treated rats [1] (acute risperidone 0.1 mg/kg i.p., 60 min prior to testing) is “increase the amount of time the rat spent sniffing to a similar level as that observed by the higher dose of test article”. Besides, the “Reversal of scPCP deficit in the extra-dimensional shift” value in the test on scPCP treated rats [4] was “reversed”. The “scPCP-induced deficit in the EDS phase (FIG. 20)” value in the test on scPCP treated rats [2] (setting [6]) is recorded as “significantly (P<0.01) reversed”. Moreover, in the test with scPCP treated rats [3] (setting [9]), the “Acquisition total exploration time” value was 25.5 ± 3.4 s and the “Retention total exploration time” value is given as 17.8 ± 1.1 s. In the test on scPCP treated rats [3] (setting [7]), the “Time spent exploring the novel versus familiar object in the retention trial (FIG. 6)” value was “statistically significant increase”. In the test with scPCP treated rats [3] (setting [10]), the “Acquisition total exploration time” value is 22.81 ± 4.03 s and the “Retention total exploration time” value was 23.10 ± 2.92 s. Further, in the test on scPCP treated rats [3] (setting [8]), the “Time spent exploring the novel versus familiar object in the retention trial (FIG. 2)” value is listed as “statistically significant increase” and the “Discrimination index (DI) (FIG. 3)” value is “higher discrimination index (DI) than those without treatment”.
Take `O=C(CCCN1CCC(O)(c2ccc(Cl)cc2)CC1)c1ccc(F)cc1` [haloperidol]: the “Reversal of scPCP deficit in the extra-dimensional shift” value in the test with scPCP treated rats [4] was “not”.
Take `O=c1cc(-c2ccccc2)oc2c(O)c(O)ccc12` [tropoflavin, 7,8-dihydroxyflavone]: the “Agonism of TrkB” value in test [5] was “potent and selective agonist”.

(Values after US20260232639A1, “COMPOUNDS FOR USE IN THE TREATMENT OF SCHIZOPHRENIA” (ONTRACK THERAPEUTICS LIMITED, priority 2023, published 2026).)
